# Data: patent US4797421A, “Antioxidant comprising proanthocyanidin as principal component” (Kikkoman Corporation, priority 1987, dated 1989)
# Assay: Amount of lipid peroxide in salad oil heated at 180° C. with oxygen bubbling (Test Example 1, Table 1)
# Design: Amount of lipid peroxide: unit not given here
# Conditions: 0.2 mg/ml in salad oil, oxygen 2 ml/sec, 40 minutes; for Amount of lipid peroxide: no additive 65.2, non-treated 10.1
# Method: A commercially sold salad oil (a product by Showa Sangyo Co., Ltd.) was pipetted 5 ml each into test tubes. Then various kinds of proanthocyanidins shown in Table 1 below were added thereto a concentration of 0.2 mg/ml and dissolved by stirring. The test tubes were kept in an 180° C. thermostatic oil bath and oxygen gas was bubbled into them at a rate of 2 ml/sec. 40 mintues thereafter, the amount of lipid peroxide in the salad oil was measured by the method shown in Yagi's Vitamins, Vol. 49, pp. 403-405. Used as controls were said salad oil added with no proanthocyanidin (control I) and those added with a commercial catechin, a gallocatechin obtained as a by-product in Preparation Example 5 and an epigallocatechin gallate, which are the monomers forming a structural unit of proanthocyanidins (control II). These control salad oil samples were similarly treated and the amount of lipid peroxide was similarly measured, the results being shown in Table 1.
SMILES,Lipid peroxide rise inhibition rate [%],Amount of lipid peroxide
O=C(OC1Cc2c(O)cc(O)c(C3c4c(O)cc(O)cc4OC(c4cc(O)c(O)c(O)c4)C3OC(=O)c3cc(O)c(O)c(O)c3)c2OC1c1cc(O)c(O)c(O)c1)c1cc(O)c(O)c(O)c1 (centres unmarked) [prodelphinidin B-2 gallic acid diester],100,10.1
"Oc1cc(O)c2c(c1)O[C@H](c1ccc(O)c(O)c1)[C@@H](O)C2 [Commercial d-catechin, d-catechin, reference compound]",–,54.7
"O=C(O[C@@H]1Cc2c(O)cc(O)cc2O[C@@H]1c1cc(O)c(O)c(O)c1)c1cc(O)c(O)c(O)c1 [Epigallocatechin gallate, reference compound]",35,45.0
"Oc1cc(O)c2c(c1)OC1(c3ccc(O)c(O)c3)Oc3cc(O)c4c(c3C2C1O)OC(c1ccc(O)c(O)c1)C(O)C4 (centres unmarked) [Dimeric procyanidin A-2, procyanidin A-2]",–,25.0
"Oc1cc(O)c2c(c1)O[C@H](c1cc(O)c(O)c(O)c1)[C@@H](O)[C@@H]2c1c(O)cc(O)c2c1O[C@H](c1cc(O)c(O)c(O)c1)[C@@H](O)C2 [Dimeric prodelphinidin B-3, prodelphinidin B-3]",85,17.2
O=C(OC1Cc2c(O)cc(O)c(C3c4c(O)cc(O)cc4OC(c4ccc(O)c(O)c4)C3OC(=O)c3cc(O)c(O)c(O)c3)c2OC1c1ccc(O)c(O)c1)c1cc(O)c(O)c(O)c1 (centres unmarked) [procyanidin B-2 gallic acid diester],98,10.5
"Oc1cc(O)c2c(c1)O[C@H](c1cc(O)c(O)c(O)c1)[C@@H](O)C2 [Gallocatechin, gallocatechin, reference compound]",32,44.7
"Oc1cc(O)c2c(c1)OC(c1ccc(O)c(O)c1)C(O)C2c1c(O)cc(O)c2c1OC(c1ccc(O)c(O)c1)C(O)C2 (centres unmarked) [Dimeric procyanidin B-2, procyanidin B-2]",–,22.4
Oc1cc(O)c2c(c1)OC(c1cc(O)c(O)c(O)c1)C(O)C2c1c(O)cc(O)c2c1OC(c1cc(O)c(O)c(O)c1)C(O)C2c1c(O)cc(O)c2c1OC(c1ccc(O)c(O)c1)C(O)C2 (centres unmarked) [Trimeric prodelphinidin],74,22.9
Oc1cc(O)c2c(c1)OC(c1ccc(O)c(O)c1)C(O)C2c1c(O)cc(O)c2c1OC(c1ccc(O)c(O)c1)C(O)C2c1c(O)cc(O)c2c1OC(c1ccc(O)c(O)c1)C(O)C2c1c(O)cc(O)c2c1OC(c1ccc(O)c(O)c1)C(O)C2 (centres unmarked) [Tetrameric procyanidin],62,29.1
